Measured values from patent publication US8404708B2, “Dual NK1/NK3 receptor antagonists” (Hoffmann-La Roche Inc., priority 2004, dated 2013).
Read-outs that look alike come from different tables or passages of the source.

Assays:
human NK1 receptor = human NK1 receptor (Homo sapiens, UniProt P25103); assay: NK1 receptor binding, [3H]substance P displacement, CHO cell membranes
[1] = molecular target: T1, Recombinant human NK3 (hNK3) receptor (Homo sapiens, UniProt P29371); assay: NK3 receptor binding, [3H]SR142801 displacement, membrane preparations
T1 construct: expressed in transfected cells
T1 sequence (P29371 1-465): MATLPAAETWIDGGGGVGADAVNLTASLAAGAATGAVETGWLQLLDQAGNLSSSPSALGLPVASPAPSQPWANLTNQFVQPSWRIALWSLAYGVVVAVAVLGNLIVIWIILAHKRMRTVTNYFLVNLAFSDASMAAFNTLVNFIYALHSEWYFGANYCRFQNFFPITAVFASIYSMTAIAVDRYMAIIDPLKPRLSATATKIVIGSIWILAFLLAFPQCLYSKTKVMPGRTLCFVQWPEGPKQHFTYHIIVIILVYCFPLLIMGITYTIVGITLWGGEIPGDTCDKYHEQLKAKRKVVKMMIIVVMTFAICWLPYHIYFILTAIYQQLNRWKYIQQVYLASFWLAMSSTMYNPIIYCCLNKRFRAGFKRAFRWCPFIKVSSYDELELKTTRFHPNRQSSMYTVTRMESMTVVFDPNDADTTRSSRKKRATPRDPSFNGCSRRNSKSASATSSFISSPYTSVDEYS
Summary of the method: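 hNK3 membranes (~2.5 μg/well) incubated 90 min at room temperature in 50 mM Tris-HCl pH 7.4 with 0.1% BSA, 4 mM MnCl2, 1 μM phosphoramidon. Nonspecific binding defined with 10 μM SB222200; bound [3H]SR142801 separated by filtration on PEI-soaked GF/C filters and counted by scintillation.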

[2] = first value of the cell NK1/NK3, read-out: pKi NK1 (converted)
[3] = second value of the cell NK1/NK3, read-out: pKi NK3 (converted)
[4] = first value of the cell pKi NK1/NK3, human NK1 receptor, [3H]substance P
[5] = second value of the cell pKi NK1/NK3, hNK3 receptor, [3H]SR142801

human NK1 receptor, sequence (P25103 whole entry): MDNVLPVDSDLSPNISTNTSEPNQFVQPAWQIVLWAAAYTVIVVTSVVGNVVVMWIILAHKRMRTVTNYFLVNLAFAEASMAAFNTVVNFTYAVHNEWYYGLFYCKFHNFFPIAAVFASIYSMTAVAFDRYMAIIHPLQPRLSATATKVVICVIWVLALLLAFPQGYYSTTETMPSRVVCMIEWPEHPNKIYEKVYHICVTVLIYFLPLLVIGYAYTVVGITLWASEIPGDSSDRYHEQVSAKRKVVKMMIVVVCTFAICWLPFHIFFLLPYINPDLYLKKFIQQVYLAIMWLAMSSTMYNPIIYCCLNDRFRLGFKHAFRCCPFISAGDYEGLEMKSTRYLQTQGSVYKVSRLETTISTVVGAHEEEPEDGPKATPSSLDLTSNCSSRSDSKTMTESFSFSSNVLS

SMILES | Ki (human NK1 receptor; [2]) [nM] | Ki [1, 3] [nM] | Ki (human NK1 receptor; [4]) [nM] | Ki [1, 5] [nM]
Cc1ncccc1-c1cc(N2CC[C@H](O)[C@H]2CO)ncc1N(C)C(=O)C(C)(C)c1cc(C(F)(F)F)cc(C(F)(F)F)c1 [Example 278, (2R,3S)-2-(3,5-Bis-trifluoromethyl-phenyl)-N-[6′-(3-hydroxy-2-hydroxymethyl-pyrrolidin-1-yl)-2-methyl-[3,4′]bipyridinyl-3′-yl]-N-methyl-isobutyramide] | 0.813 | 2.69 |  | 
CCCCCCN(CCO)c1cc(-c2ccccc2Cl)c(N(C)C(=O)C(C)(C)c2cc(C(F)(F)F)cc(C(F)(F)F)c2)cn1 [Example 148, 2-(3,5-Bis-trifluoromethyl-phenyl)-N-{4-(2-chloro-phenyl)-6-[hexyl-(2-hydroxy-ethyl)-amino]-pyridin-3-yl}-N-methyl-isobutyramide] |  |  | 2.09 | 12
Cc1ccc(-c2cc(N3CC[C@H](O)[C@H]3CO)ncc2N(C)C(=O)C(C)(C)c2cc(C(F)(F)F)cc(C(F)(F)F)c2)cc1 [Example 267, (2R,3S)-2-(3,5-Bis-trifluoromethyl-phenyl)-N-[6-(3-hydroxy-2-hydroxymethyl-pyrrolidin-1-yl)-4-p-tolyl-pyridin-3-yl]-N-methyl-isobutyramide] | 3.63 | 28.8 |  | 
CN(C(=O)C(C)(C)c1cc(C(F)(F)F)cc(C(F)(F)F)c1)c1cnc(N2CCCC[C@H]2CO)cc1-c1ccccc1Cl [Example 161, (S)-2-(3,5-Bis-trifluoromethyl-phenyl)-N-[4′-(2-chloro-phenyl)-2-hydroxymethyl-3,4,5,6-tetrahydro-2H-[1,2′]bipyridinyl-5′-yl]-N-methyl-isobutyramide] |  |  | 11.5 | 6.76
CN(CCO)c1cc(-c2ccccc2Cl)c(N(C)C(=O)C(C)(C)c2cc(C(F)(F)F)cc(C(F)(F)F)c2)cn1 [Example 54, 2-(3,5-Bis-trifluoromethyl-phenyl)-N-{4-(2-chloro-phenyl)-6-[(2-hydroxy-ethyl)-methyl-amino]-pyridin-3-yl}-N-methyl-isobutyramide] |  |  | 1 | 2.69
CN(C(=O)C(C)(C)c1cc(Cl)cc(Cl)c1)c1cnc(N2C[C@H](O)C[C@H]2CO)cc1-c1ccccc1Cl [Example 3, (2S,4R)-N-[4-(2-Chloro-phenyl)-6-(4-hydroxy-2-hydroxymethyl-pyrrolidin-1-yl)-pyridin-3-yl]-2-(3,5-dichloro-phenyl)-N-methyl-isobutyramide] |  |  | 1.41 | 0.871
CN(C(=O)C(C)(C)c1cc(C(F)(F)F)cc(C(F)(F)F)c1)c1cnc(N2C[C@H](O)C[C@H]2CO)cc1-c1ccccc1C(N)=O [Example 219, (2S,4R)-2-[5-{[2-(3,5-Bis-trifluoromethyl-phenyl)-2-methyl-propionyl]-methyl-amino}-2-(4-hydroxy-2-hydroxymethyl-pyrrolidin-1-yl)-pyridin-4-yl]-benzamide] | 1.45 | 20.4 |  | 
CN(C(=O)C(C)(C)c1cc(C(F)(F)F)cc(C(F)(F)F)c1)c1cnc(N2CC[C@@H](O)[C@@H](CO)C2)cc1-c1ccccc1Cl (racemic) [Example 194, (3RS,4RS)-2-(3,5-Bis-trifluoromethyl-phenyl)-N-[4′-(2-chloro-phenyl)-4-hydroxy-3-hydroxymethyl-3,4,5,6-tetrahydro-2H-[1,2′]bipyridinyl-5′-yl]-N-methyl-isobutyramide] |  |  | 1.66 | 17.4
Cc1ccc(F)cc1-c1cc(N2C[C@H](O)C[C@H]2CO)ncc1N(C)C(=O)C(C)(C)c1cc(C(F)(F)F)cc(C(F)(F)F)c1 [Example 227, (2S,4R)-2-(3,5-Bis-trifluoromethyl-phenyl)-N-[4-(5-fluoro-2-methyl-phenyl)-6-(4-hydroxy-2-hydroxymethyl-pyrrolidin-1-yl)-pyridin-3-yl]-N-methyl-isobutyramide] | 1.1 | 1.38 |  | 
Cc1cc(F)ccc1-c1cc(N2CC[C@H](N)C2)ncc1N(C)C(=O)C(C)(C)c1cc(C(F)(F)F)cc(C(F)(F)F)c1 [Example 103, (S)-N-[6-(3-Amino-pyrrolidin-1-yl)-4-(4-fluoro-2-methyl-phenyl)-pyridin-3-yl]-2-(3,5-bis-trifluoromethyl-phenyl)-N-methyl-isobutyramide] |  |  | 1.66 | 15.8
C[C@H](O)CNc1cc(-c2ccc(Cl)cc2Cl)c(N(C)C(=O)C(C)(C)c2cc(C(F)(F)F)cc(C(F)(F)F)c2)cn1 [Example 71, (S)-2-(3,5-Bis-trifluoromethyl-phenyl)-N-[4-(2,4-dichloro-phenyl)-6-(2-hydroxy-propylamino)-pyridin-3-yl]-N-methyl-isobutyramide] |  |  | 2.04 | 9.12
CN(C(=O)C(C)(C)c1cc(C(F)(F)F)cc(C(F)(F)F)c1)c1cnc(N2C[C@H](O)C[C@H]2CO)cc1-c1ccccc1 [Example 201, (2S,4R)-2-(3,5-Bis-trifluoromethyl-phenyl)-N-[6-(4-hydroxy-2-hydroxymethyl-pyrrolidin-1-yl)-4-phenyl-pyridin-3-yl]-N-methyl-isobutyramide] |  |  | 1.48 | 8.71
CN(C(=O)C(C)(C)c1cc(C(F)(F)F)cc(C(F)(F)F)c1)c1cnc(N2CC[C@H](O)[C@H]2CO)cc1-c1ccccc1Br [Example 130, (2R,3S)-2-(3,5-Bis-trifluoromethyl-phenyl)-N-[4-(2-bromo-phenyl)-6-(3-hydroxy-2-hydroxymethyl-pyrrolidin-1-yl)-pyridin-3-yl]-N-methyl-isobutyramide] |  |  | 1.66 | 2.29
CN(C(=O)C(C)(C)c1cc(C(F)(F)F)cc(C(F)(F)F)c1)c1cnc(N2CCC[C@H]2CO)cc1-c1cccc(Cl)c1Cl [Example 285, (S)-2-(3,5-Bis-trifluoromethyl-phenyl)-N-[4-(2,3-dichloro-phenyl)-6-(2-hydroxymethyl-pyrrolidin-1-yl)-pyridin-3-yl]-N-methyl-isobutyramide] | 1.58 | 1.86 |  | 
Cc1cc(-c2cc(N3C[C@@H](O)C[C@H]3CO)ncc2N(C)C(=O)C(C)(C)c2cc(C(F)(F)F)cc(C(F)(F)F)c2)ccc1F [Example 248, (2S,4S)-2-(3,5-Bis-trifluoromethyl-phenyl)-N-[4-(4-fluoro-3-methyl-phenyl)-6-(4-hydroxy-2-hydroxymethyl-pyrrolidin-1-yl)-pyridin-3-yl]-N-methyl-isobutyramide] | 2.19 | 27.5 |  | 
COc1ccccc1-c1cc(N2CCC[C@H]2CO)ncc1N(C)C(=O)C(C)(C)c1cc(C(F)(F)F)cc(C(F)(F)F)c1 [Example 280, (S)-2-(3,5-Bis-trifluoromethyl-phenyl)-N-[6-(2-hydroxymethyl-pyrrolidin-1-yl)-4-(2-methoxy-phenyl)-pyridin-3-yl]-N-methyl-isobutyramide] | 1.82 | 1.86 |  | 
CN(C(=O)C(C)(C)c1cc(C(F)(F)F)cc(C(F)(F)F)c1)c1cnc(N2CC[C@H](O)[C@H]2CO)cc1-c1ccc(F)cc1Cl [Example 272, (2R,3S)-2-(3,5-Bis-trifluoromethyl-phenyl)-N-[4-(2-chloro-4-fluoro-phenyl)-6-(3-hydroxy-2-hydroxymethyl-pyrrolidin-1-yl)-pyridin-3-yl]-N-methyl-isobutyramide] | 2 | 1.1 |  | 
Cc1cc(F)ccc1-c1cc(N[C@H]2CC[C@H](O)CC2)ncc1N(C)C(=O)C(C)(C)c1cc(C(F)(F)F)cc(C(F)(F)F)c1 [Example 92, trans-2-(3,5-Bis-trifluoromethyl-phenyl)-N-[4-(4-fluoro-2-methyl-phenyl)-6-(4-hydroxy-cyclohexylamino)-pyridin-3-yl]-N-methyl-isobutyramide] |  |  | 1.02 | 21.4
CN(C(=O)C(C)(C)c1cc(C(F)(F)F)cc(C(F)(F)F)c1)c1cnc(N2C[C@@H](O)C[C@H]2CO)cc1-c1ccccc1Br [Example 246, (2S,4S)-2-(3,5-Bis-trifluoromethyl-phenyl)-N-[4-(2-bromo-phenyl)-6-(4-hydroxy-2-hydroxymethyl-pyrrolidin-1-yl)-pyridin-3-yl]-N-methyl-isobutyramide] | 1.91 | 1.48 |  | 
Cc1ccccc1-c1cc(NC(CO)CO)ncc1N(C)C(=O)C(C)(C)c1cc(C(F)(F)F)cc(C(F)(F)F)c1 [Example 143, 2-(3,5-Bis-trifluoromethyl-phenyl)-N-[6-(2-hydroxy-1-hydroxymethyl-ethylamino)-4-o-tolyl-pyridin-3-yl]-N-methyl-isobutyramide] |  |  | 3.02 | 3.63
CN(C(=O)C(C)(C)c1cc(Cl)cc(Cl)c1)c1cnc(NCCO)cc1-c1ccccc1Cl [Example 1, N-[4-(2-Chloro-phenyl)-6-(2-hydroxy-ethylamino)-pyridin-3-yl]-2-(3,5-dichloro-phenyl)-N-methyl-isobutyramide] |  |  | 2.75 | 8.91
CN(C(=O)C(C)(C)c1cc(C(F)(F)F)cc(C(F)(F)F)c1)c1cnc(N2C[C@H](O)C[C@H]2CO)cc1-c1ncccc1Cl [Example 234, (2S,4R)-2-(3,5-Bis-trifluoromethyl-phenyl)-N-[3-chloro-6′-(4-hydroxy-2-hydroxymethyl-pyrrolidin-1-yl)-[2,4′]bipyridinyl-3′-yl]-N-methyl-isobutyramide] | 2.19 | 11 |  | 
